Results on four molecules are retold here after patent US11291208B2, “Ternary herbicide combinations” (Bayer CropScience Aktiengesellschaft, priority 2013, dated 2022).

Common to all, as to format: in vivo
One data set deals with GALAP: Galium aparine. The experiment in a line: Herbicidal action, outdoor/field trials, post-emergence. To be noted: crop TRZAW, field trials. The protocol:
(§1) The seeds or rhizome pieces of typical harmful plants were planted and grown under natural outdoor conditions. After the harmful plants had emerged, they were treated, as a rule at the 2- to 4-leaf stage, with various dosages of the compositions according to the invention at a water application rate of […] (converted).
(§2) After the treatment (approx. 4-6 weeks after application), the herbidical activity of the active compounds or active compound mixtures was scored visually by comparing the treated plots with the untreated control plots. Damage and development of all above-ground parts of the plants was recorded. Scoring was done on a percentage scale (100% action=all plants dead; 50% action=50% of the plants and green plant parts dead; 0% action=no discernible action=like control plot). The score figures of in each case 4 plots were averaged.
(§3) The growth stages of the different weed species are indicated according to the BBCH monograph “Growth stages of mono- and dicotyledonous plants”, 2nd edition, 2001, ed. Uwe Meier, Federal Biological Research Centre for Agriculture and Forestry (Biologische Bundesanstalt für Land and Forstwirtschaft). The respective BBCH stages are indicated in brackets for the different weed species.
(§4) The dose rates of herbicidal ingredients used in each case are indicated for the respective active ingredient in brackets and refer to the amount of active ingredient per hectare (g/ha).
(§5) The herbicidal effects observed for the herbicide (mixtures) are indicated in % Activity against the respective weed. The % Damage indicated refers to the maximum damage observed in the respective crop.
(§6) The results of the treatments are reflected in the Tables below, and the activity measured for the independent use of the active compounds (A+B)+(C) is stated in brackets. The treatments were carried out using Mesosulfuron-methyl (A1-1) or Mesosulfuron-methyl-sodium (A1-2) as component (A), and Iodosulfuron-methyl (B1-1) or Iodosulfuron-methyl-sodium (B1-2) as component (B). The results of the treatments in these cases were essentially identical.

The subject of a further data set is PAPRH: Papaver rhoeas. Described as above. To be noted: field trials. The method, then: as §1, §2, §3, §4, §5, §6
For data set [1], the system named is FUMOF: Fumaria officinalis. The description is as above. To be noted: HALXF 276.5 g/ha, crop TRZAW, field trials. The protocol:
as §1, §2, §3, §4, §5, §6

The next data set has as its system CENCY: Centaurea Cyanus. The data set is described as above. The following applies: crop TRZAW, field trials. The method, then: as §1, §2, §3, §4, §5, §6
The subject of data set [2] is TRZAW: Triticum aestivum (soft wheat). The experiment in a line: Crop damage in field trials (maximum damage observed in the crop). The protocol:
as §1, §2, §4, §5, §6

Data set [3] relates to LOLMU: Lolium multiflorum. The experiment in a line: Herbicidal action, outdoor/field trials, post-emergence. To be noted: TCM 7.5 g/ha, LOLMU (23), crop TRZDU, field trials. The protocol: as §1, §2, §3, §4, §5, §6
The next data set deals with VIOAR: Viola arvensis. The description is as above. To be noted: TCM 7.5 g/ha, VIOAR (15), crop TRZAW, field trials. The method, then:
as §1, §2, §3, §4, §5, §6

For the next data set, the system named is LOLRI: Lolium rigidum. Described as above. The method, then: as §1, §2, §3, §4, §5, §6
For data set [4], the system named is LAMAM: Lamium amplexicaule. The description is as above. To be noted: TCM 7.5 g/ha, LAMAM (32), crop TRZAW, field trials. The method, then: as §1, §2, §3, §4, §5, §6
Data set [5] deals with MATIN: Matricaria inodora. Described as above. The following applies: Tripleurospermum inodorum, TCM 7.5 g/ha, MATIN (19), crop TRZAW, field trials. The protocol: as §1, §2, §3, §4, §5, §6
The subject of a further data set is PICEC: Picris echioides. The description is as above. To be noted: Helminthotheca echioides, TCM 7.5 g/ha, PICEC (22), crop TRZDU, field trials. The protocol:
as §1, §2, §3, §4, §5, §6

For data set [6], the system named is GERDI: Geranium dissectum. The description is as above. To be noted: crop TRZAW, field trials. The protocol: as §1, §2, §3, §4, §5, §6
A further data set has as its system AVEST: Avena sterilis. The data set is described as above. The following applies: TCM 7.5 g/ha, AVEST (23), crop TRZDU, field trials. The method, then: as §1, §2, §3, §4, §5, §6
In another data set the test system is VERPE: Veronica persica. The description is as above. The following applies: crop TRZAW, field trials. The method, then: as §1, §2, §3, §4, §5, §6
The subject of the next data set is LAMPU: Lamium purpureum. Described as above. To be noted: TCM 7.5 g/ha, LAMPU (61), crop TRZAW, field trials. The protocol:
as §1, §2, §3, §4, §5, §6

Data set [7] relates to TRZDU: Triticum aestivum (durum wheat). Briefly: Crop damage in field trials (maximum damage observed in the crop). The following applies: TCM 7.5 g/ha. The protocol:
as §1, §2, §4, §5, §6

The test system of another data set is BROST: Bromus sterilis. Briefly: Herbicidal action, outdoor/field trials, post-emergence. The following applies: PXD 60 g/ha, BROST (25), crop TRZAW, field trials. The protocol: as §1, §2, §3, §4, §5, §6
For data set [8], the system named is VERHE: Veronica hederifolia. Described as above. The following applies: PXD 60 g/ha, VERHE (71), crop TRZAW, field trials. The protocol: as §1, §2, §3, §4, §5, §6

The inhibition is the percentage by which the read-out fell short of the control. For `COc1c(Cl)ccc(-c2cc(N)c(Cl)c(C(=O)O)n2)c1F` [HALXF, 4-amino-3-chloro-6-(4-chloro-2-fluoro-3-methoxyphenyl)-2-pyridinecarboxylic acid], the inhibition at 276.5 g/ha with GALAP: Galium aparine (HALXF 276.5 g/ha, GALAP) worked out at 73%; in the data set with PAPRH: Papaver rhoeas (HALXF 276.5 g/ha, PAPRH, crop TRZAW), 75%; in data set [1], 85%; with CENCY: Centaurea Cyanus (HALXF 276.5 g/ha, CENCY), 45%. Also, the “% Damage” value in data set [2] (HALXF 276.5 g/ha, listed as CENCY) is on record as 0%; in data set [2] (HALXF 276.5 g/ha, listed as FUMOF), 0%; in [2] (HALXF 276.5 g/ha, listed as GALAP), 0%; in data set [2] (HALXF 276.5 g/ha, listed as PAPRH) it was 0%.

Consider `COC(=O)c1csc(C)c1S(=O)(=O)NC(=O)n1nc(OC)n(C)c1=O` [TCM, methyl 4-[(4,5-dihydro-3-methoxy-4-methyl-5-oxo-1H-1,2,4-triazol-1-yl)carbonylsulfamoyl]-5-methylthiophene-3-carboxylate], for which the inhibition at 7.5 g/ha stood at 43% in data set [3]; 37% in the data set with GALAP: Galium aparine (TCM 7.5 g/ha, GALAP (23)); 38% with VIOAR: Viola arvensis; 70% in the data set on PAPRH: Papaver rhoeas (TCM 7.5 g/ha, PAPRH (15), crop TRZDU); 52% in the data set on LOLRI: Lolium rigidum (TCM 7.5 g/ha, LOLRI (29), crop TRZDU, field trials); 68% in [4]. In addition, the inhibition at 7.5 g/ha in data set [5] came out at 20%; in the data set with PICEC: Picris echioides, 69%; in the data set with CENCY: Centaurea Cyanus (TCM 7.5 g/ha, CENCY (19)) it was 38%; in data set [6] (TCM 7.5 g/ha, GERDI (29)), 63%; with AVEST: Avena sterilis, 33%; with VERPE: Veronica persica (TCM 7.5 g/ha, VERPE), 10%. The molecule also showed an inhibition at 7.5 g/ha in the data set with LAMPU: Lamium purpureum of 70%. For the same molecule, the “% Damage” value in [7] (listed as AVEST (23)) stood at 0%; in [7] (listed as AVEST (23), Table 1B), 0%; in [7] (listed as LOLMU (23)) it was 0%; in data set [7] (listed as LOLMU (23), Table 1B), 0%; in [7] (listed as LOLRI (29)), 5%; in data set [7] (listed as LOLRI (29), Table 1B), 5%. In addition, the “% Damage” value in [7] (listed as PAPRH (15)) came out at 0%; in [7] (listed as PAPRH (15), Table 1B), 0%; in [7] (listed as PICEC (22)) it was 5%; in data set [7] (listed as PICEC (22), Table 1B) it was 5%; in data set [2] (TCM 7.5 g/ha, listed as CENCY (19)), 0%; in data set [2] (TCM 7.5 g/ha, listed as CENCY (19), Table 2B), 0%. For the same molecule, the “% Damage” value in [2] (TCM 7.5 g/ha, listed as GALAP (23)) is reported as 0%; in data set [2] (TCM 7.5 g/ha, listed as GALAP (23), Table 2B), 0%; in data set [2] (TCM 7.5 g/ha, listed as GERDI (29)), 0%; in [2] (TCM 7.5 g/ha, listed as GERDI (29), Table 2B), 0%; in data set [2] (TCM 7.5 g/ha, listed as LAMAM (32)), 1%; in data set [2] (TCM 7.5 g/ha, listed as LAMAM (32), Table 2B) it was 1%. In addition, the “% Damage” value in data set [2] (TCM 7.5 g/ha, listed as LAMPU (61)) was determined as 1%; in data set [2] (TCM 7.5 g/ha, listed as LAMPU (61), Table 2B), 1%; in data set [2] (TCM 7.5 g/ha, listed as MATIN (19)), 0%; in data set [2] (TCM 7.5 g/ha, listed as MATIN (19), Table 2B) it was 0%; in data set [2] (TCM 7.5 g/ha, listed as VERPE), 1%; in data set [2] (TCM 7.5 g/ha, listed as VERPE, Table 2B) it was 1%. Moreover, the “% Damage” value was found to be 0% in data set [2] (TCM 7.5 g/ha, listed as VIOAR (15)) and 0% in data set [2] (TCM 7.5 g/ha, listed as VIOAR (15), Table 2B).

Take `CCc1cc(C)cc(CC)c1-c1c(OC(=O)C(C)(C)C)n2n(c1=O)CCOCC2` [PXD, 8-(2,6-diethyl-4-methylphenyl)-1,2,4,5-tetrahydro-7-oxo-7H-pyrazolo[1,2-d][1,4,5]oxadiazepin-9-yl 2,2-dimethylpropanoate]: the inhibition at 60 g/ha in the data set on BROST: Bromus sterilis came to 0%; with CENCY: Centaurea Cyanus (PXD 60 g/ha, CENCY (38)) it was 60%; in data set [6] (PXD 60 g/ha, GERDI (19)) it was 30%; in the data set with VERPE: Veronica persica (PXD 60 g/ha, VERPE (31)), 0%; in data set [8] it was 13%. Besides, the “% Damage” value was 0% in [2] (PXD 60 g/ha, listed as BROST (25)); 15% in [2] (PXD 60 g/ha, listed as CENCY (38)); 4% in [2] (PXD 60 g/ha, listed as GERDI (19)); 0% in data set [2] (PXD 60 g/ha, listed as VERHE (71)); 0% in data set [2] (PXD 60 g/ha, listed as VERPE (31)).

In the data set with LOLRI: Lolium rigidum (PYX 17 g/ha, LOLRI (10)), `COc1cc(OC)n2nc(NS(=O)(=O)c3c(C(F)(F)F)ccnc3OC)nc2n1` [PYX, N-(5,7-dimethoxy[1,2,4]triazolo[1,5-a]pyrimidin-2-yl)-2-methoxy-4-(trifluoromethyl)-3-pyridinesulfonamide] showed an inhibition at 17 g/ha of 20%.
